US5189157A, “Antibacterial cephalosporin compounds” (Hoffmann La Roche Inc., priority 1988, dated 1993)
Counter-ions that a name gives are not always drawn. Each block holds one compound with its values, some of them ahead of it.

What was measured:
Assay type in all cases: cell-based
P. aeruginosa B = test: In Vitro MIC, Broth Dilution Method; conditions: Pseudomonas aeruginosa
P. aeruginosa Stone 130 [1] = test: In Vitro MIC, Broth Dilution Method; conditions: Pseudomonas aeruginosa, STONE130
P. aeruginosa ATCC 27853 = test: In Vitro MIC, Broth Dilution Method; conditions: Pseudomonas aeruginosa, ATCC27853
P. aeruginosa 1973E = test: In Vitro MIC, Broth Dilution Method; conditions: Pseudomonas aeruginosa
From the text: (§1) The in vitro activity of the compounds of the present invention as measured by the Minimum Inhibitory Concentration in micrograms/ml utilizing the Agar Well Diffusion Method, Agar Dilution Method or Broth Dilution Method against a variety of Gram-positive and Gram-negative organisms, is as follows:
(§2) In Vitro MIC (μg/ml) Broth Dilution Method

P. aeruginosa 503-56 = test: In Vitro MIC, Broth Dilution Method; conditions: Pseudomonas aeruginosa, 50356
From the text: as §1, §2

P. aeruginosa 5700 = test: In Vitro MIC, Broth Dilution Method; conditions: Pseudomonas aeruginosa
From the text: as §1, §2

P. aeruginosa 765 = test: In Vitro MIC, Broth Dilution Method; conditions: Pseudomonas aeruginosa
From the text: as §1, §2

P. aeruginosa 8710 = test: In Vitro MIC, Broth Dilution Method; conditions: Pseudomonas aeruginosa
From the text: as §1, §2

P. aeruginosa K77/WT = test: In Vitro MIC, Broth Dilution Method; conditions: Pseudomonas aeruginosa
From the text: as §1, §2

P. aeruginosa 8780 = test: In Vitro MIC, Broth Dilution Method; conditions: Pseudomonas aeruginosa, 8780, read-out: In Vitro MIC
P. aeruginosa 6148B = test: In Vitro MIC, Broth Dilution Method; conditions: Pseudomonas aeruginosa
E. cloaca P99 = test: In Vitro MIC, Agar Dilution Method
From the text: as §1
(§3) In Vitro MIC (μg/ml) Agar Dilution Method

E. cloacae 9570A = test: In Vitro MIC, Agar Dilution Method; conditions: Enterobacter cloacae
From the text: as §1, §3

E. coli 48 = test: In Vitro MIC, Agar Dilution Method; conditions: Escherichia coli
From the text: as §1, §3

K. pneumoniae A = test: In Vitro MIC, Agar Dilution Method; conditions: Klebsiella pneumoniae
From the text: as §1, §3

P. aeruginosa 130 = test: In Vitro MIC, Agar Dilution Method; conditions: Pseudomonas aeruginosa
From the text: as §1, §3

P. aeruginosa 185/H = test: In Vitro MIC, Agar Dilution Method; conditions: Pseudomonas aeruginosa
From the text: as §1, §3

P. aeruginosa Stone 130 [2] = test: In Vitro MIC, Agar Dilution Method; conditions: Pseudomonas aeruginosa, STONE130
From the text: as §1, §3

P. aureus Giorgid = test: In Vitro MIC, Agar Dilution Method
From the text: as §1, §3

P. mirabilis 190 = test: In Vitro MIC, Agar Dilution Method; conditions: Proteus mirabilis
From the text: as §1, §3

S. aureus 1059B = test: In Vitro MIC, Agar Dilution Method; conditions: Staphylococcus aureus
From the text: as §1, §3

S. aureus ATCC 25923 = test: In Vitro MIC, Agar Dilution Method; conditions: Staphylococcus aureus, ATCC25923
From the text: as §1, §3

S. aureus Smith = test: In Vitro MIC, Agar Dilution Method; conditions: Staphylococcus aureus
From the text: as §1, §3

S. marscescens SM = test: In Vitro MIC, Agar Dilution Method
From the text: as §1, §3

P. aeruginosa K77/61 = test: In Vitro MIC, Broth Dilution Method; conditions: Pseudomonas aeruginosa, K77/61, read-out: In Vitro MIC
From the text: as §1, §2

SMILES: CO/N=C(\C(=O)N[C@@H]1C(=O)N2C(C(=O)O)=C(COC(=O)c3ccc(O)c(O)c3)CS[C@H]12)c1csc(N)n1 [Compound A, [6R-[6 alpha,7 beta(Z)]]-7-[[(2-amino-4-thiazolyl)(methoxyimino)acetyl]amino]-3-[[[(3,4-dihydroxyphenyl)carbonyl]oxy]methyl]-8-oxo-5-thia-1-azabicyclo[4.2.0]oct-2-ene-2-carboxylic acid monosodium salt]
MIC (P. aeruginosa B): 2 µg/mL
MIC (P. aeruginosa Stone 130 [1]): 2 µg/mL
MIC (P. aeruginosa ATCC 27853): 8 µg/mL
MIC (P. aeruginosa 1973E): 4 µg/mL
MIC (P. aeruginosa 503-56): 4 µg/mL
MIC (P. aeruginosa 5700): 8 µg/mL
MIC (P. aeruginosa 765): 4 µg/mL
MIC (P. aeruginosa 8710): 2 µg/mL
MIC (P. aeruginosa K77/WT): 1 µg/mL
MIC (P. aeruginosa 8780): 0.5 µg/mL
MIC (P. aeruginosa 6148B): 2 µg/mL

SMILES: CC(=O)Oc1ccc(C(=O)OCC2=C(C(=O)O)N3C(=O)[C@@H](NC(=O)/C(=N\OCC(N)=O)c4csc(N)n4)[C@H]3SC2)cc1OC(C)=O [Compound B, [6R-[6 alpha,7 beta(Z)]]-3-[[[3,4-bis(acetyloxy)benzoyl]oxy]methyl]-7-[[[2-amino-4-thiazolyl][(2-amino-2-oxoethoxy)imino]acetyl]amino]-8-oxo-5-thia-1-azabicyclo[4.2.0]oct-2-ene-2-carboxylic acid monosodium salt]
MIC (E. cloaca P99): 32 µg/mL
MIC (E. cloacae 9570A): 1 µg/mL
MIC (E. coli 48): 0.031 µg/mL
MIC (K. pneumoniae A): 0.125 µg/mL
MIC (P. aeruginosa 130): 4 µg/mL
MIC (P. aeruginosa 185/H): 2 µg/mL
MIC (P. aeruginosa Stone 130 [2]): 4 µg/mL
MIC (P. aureus Giorgid): 8 µg/mL
MIC (P. mirabilis 190): 0.063 µg/mL
MIC (S. aureus 1059B): 4 µg/mL
MIC (S. aureus ATCC 25923): 2 µg/mL
MIC (S. aureus Smith): 4 µg/mL
MIC (S. marscescens SM): 1 µg/mL

SMILES: CC(C)(O/N=C(\C(=O)N[C@@H]1C(=O)N2C(C(=O)O)=C(COC(=O)c3ccc(O)c(O)c3)CS[C@H]12)c1csc(N)n1)C(=O)O [Compound C, [6R-[6 alpha,7 beta(Z)]]-7-[[(2-amino-4-thiazolyl)(1-carboxy-1-methylethoxy)-imino]acetyl]amino]-3-[[(3,4-dihydroxybenzoyl)oxy]methyl]-8-oxo-5-thia-1-azabicyclo[4.2.0]oct-2-ene-2-carboxylic acid disodium salt]
MIC (P. aeruginosa B): 0.125 µg/mL
MIC (P. aeruginosa 1973E): 2 µg/mL
MIC (P. aeruginosa 5700): 2 µg/mL
MIC (P. aeruginosa 765): 8 µg/mL
MIC (P. aeruginosa 8710): 0.063 µg/mL
MIC (P. aeruginosa K77/61): > 0.008 µg/mL
MIC (P. aeruginosa 8780): > 0.008 µg/mL

MIC (P. aeruginosa 8710): 0.125 µg/mL
SMILES: CCN1CCN(C(=O)N[C@@H](C(=O)N[C@@H]2C(=O)N3C(C(=O)O)=C(COC(=O)c4ccc(O)c(O)c4)CS[C@H]23)c2ccccc2)C(=O)C1=O [Compound D, [6R-[6 alpha,7 beta(R*)]]-7-[[[[(4-ethyl-2,4-dioxo-1-piperazinyl)carbonyl]amino]phenylacetyl]amino]-3-[[(3,4-dihydroxy)benzoyl]oxy]-methyl]-8-oxo-5-thia-1-azabicyclo(4.2.0)oct-2-ene-2-carboxylic acid monosodium salt]
